Results: PubChem BioAssay AID248 (DTP/NCI, 2004)
Values joined by “and” are separate entries in the source; they are usually repeats but may differ in a detail not shown here. Equal entries are not always repeated. Inconclusive results and toxic doses are left out. Cut-off read from the data, not from the text of the source: active = T/C of 150% or more; inactive = T/C below 125%.

Test system: L1210 leukemia ip in BDF1 mice, survival T/C
Experiment: NCI In Vivo Anticancer Drug Screen. Data for tumor model L1210 Leukemia (intraperitoneal) in B6D2F1 (BDF1) mice
Details: endpoint: mean survival time, higher = longer survival
Procedure, shortened: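 Transplanted-tumor mice were given test agent; controls received vehicle only. Survival readings from the two groups were divided (treated over control).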

[1] = dose: 100.0 mg/kg/injection, schedule: Q01DX009 (ip), vehicle: Klucel (hydroxypropylcellulose) (HPC)
[2] = dose: 200.0 mg/kg/injection, schedule: Q01DX009 (ip), vehicle: Klucel (hydroxypropylcellulose) (HPC)
[3] = dose: 200.0 mg/kg/injection, schedule: Q01DX009 (ip), vehicle: saline
[4] = dose: 100.0 mg/kg/injection, schedule: Q04DX003 (ip), vehicle: Klucel (hydroxypropylcellulose) (HPC)
[5] = dose: 200.0 mg/kg/injection, schedule: Q04DX003 (ip), vehicle: Klucel (hydroxypropylcellulose) (HPC)
[6] = dose: 400.0 mg/kg/injection, schedule: Q04DX003 (ip), vehicle: Klucel (hydroxypropylcellulose) (HPC)
[7] = dose: 100.0 mg/kg/injection, schedule: Q01DX009 (ip), vehicle: saline with Tween-80
[8] = dose: 200.0 mg/kg/injection, schedule: Q01DX009 (ip), vehicle: saline with Tween-80
[9] = dose: 400.0 mg/kg/injection, schedule: Q01DX009 (ip), vehicle: saline with Tween-80
[10] = dose: 50.0 mg/kg/injection, schedule: Q01DX009 (ip), vehicle: saline with Tween-80
[11] = dose: 100.0 mg/kg/injection, schedule: Q04DX003 (ip), vehicle: saline with Tween-80
[12] = dose: 200.0 mg/kg/injection, schedule: Q04DX003 (ip), vehicle: saline with Tween-80
[13] = dose: 400.0 mg/kg/injection, schedule: Q04DX003 (ip), vehicle: saline with Tween-80
[14] = dose: 100.0 mg/kg/injection, schedule: Q01DX009 (ip), vehicle: saline
[15] = dose: 100.0 mg/kg/injection, schedule: Q04DX003 (ip), vehicle: saline
[16] = dose: 200.0 mg/kg/injection, schedule: Q04DX003 (ip), vehicle: saline
[17] = dose: 400.0 mg/kg/injection, schedule: Q04DX003 (ip), vehicle: saline

Measured: T/C

Ic1ncnc2nc[nH]c12
active: dose: 300.0 mg/kg/injection, schedule: Q01DX009 (ip), vehicle: Klucel (hydroxypropylcellulose) (HPC) 151 % of control
inactive: dose: 56.0 mg/kg/injection, schedule: Q01DX Z (ip), vehicle: carboxymethylcellulose (CMC) 104 % of control | dose: 62.5 mg/kg/injection, schedule: Q01DX Z (ip), vehicle: carboxymethylcellulose (CMC) 115 % of control | [1] 118 % of control | dose: 100.0 mg/kg/injection, schedule: Q04DX003 (ip), vehicle: other 106 % of control | dose: 112.0 mg/kg/injection, schedule: Q01DX Z (ip), vehicle: carboxymethylcellulose (CMC) 121 % of control | dose: 125.0 mg/kg/injection, schedule: Q01DX Z (ip), vehicle: carboxymethylcellulose (CMC) 110 % of control | dose: 132.0 mg/kg/injection, schedule: Q01DX009 (ip), vehicle: saline 122 % of control | [2] 119 % of control | [3] 120 % of control | dose: 200.0 mg/kg/injection, schedule: Q04DX003 (ip), vehicle: other 103 % of control | dose: 400.0 mg/kg/injection, schedule: Q04DX003 (ip), vehicle: other 103 % of control

CCOC(=O)C(C1=NC(C)(C)CC(C)O1)C1CCCCC1 (configuration not stated)
inactive: dose: 100.0 mg/kg/injection, schedule: Q04DX003 (ip), vehicle: saline sonified 115 % of control | dose: 200.0 mg/kg/injection, schedule: Q04DX003 (ip), vehicle: saline sonified 102 % of control | dose: 400.0 mg/kg/injection, schedule: Q04DX003 (ip), vehicle: saline sonified 108 % of control

O=C(O)CCSc1nc[nH]c1[N+](=O)[O-]
inactive: dose: 100.0 mg/kg/injection, schedule: Q01DX001 (ip), vehicle: saline with Tween-80 102 % of control | dose: 200.0 mg/kg/injection, schedule: Q01DX001 (ip), vehicle: saline with Tween-80 96 % of control | dose: 400.0 mg/kg/injection, schedule: Q01DX001 (ip), vehicle: saline with Tween-80 96 % of control

c1ccc(C2C(CN3CCCCCC3)C2c2ccccc2)cc1 (configuration not stated)
inactive: dose: 12.5 mg/kg/injection, schedule: Q04DX002 (ip), vehicle: Klucel (hydroxypropylcellulose) (HPC) 88 % of control | dose: 25.0 mg/kg/injection, schedule: Q04DX002 (ip), vehicle: Klucel (hydroxypropylcellulose) (HPC) 95 % of control and 98 % of control | dose: 50.0 mg/kg/injection, schedule: Q04DX002 (ip), vehicle: Klucel (hydroxypropylcellulose) (HPC) 98 % of control and 101 % of control and 91 % of control | dose: 100.0 mg/kg/injection, schedule: Q04DX002 (ip), vehicle: Klucel (hydroxypropylcellulose) (HPC) 92 % of control

COc1ccc(C(=O)c2ccc(C)cc2)cc1
inactive: [1] 102 % of control | [4] 95 % of control | [2] 105 % of control | [5] 101 % of control | dose: 400.0 mg/kg/injection, schedule: Q01DX009 (ip), vehicle: Klucel (hydroxypropylcellulose) (HPC) 96 % of control | [6] 102 % of control

CCC1(OC(C)=O)C(=O)OCc2c1cc1n(c2=O)Cc2cc3ccccc3nc2-1 (configuration not stated)
inactive: dose: 0.13 mg/kg/injection, schedule: Q01DX009 (ip), vehicle: carboxymethylcellulose (CMC) 96 % of control | dose: 0.13 mg/kg/injection, schedule: Q01DX Z (ip), vehicle: water 93 % of control | dose: 0.22 mg/kg/injection, schedule: Q01DX Z (ip), vehicle: water 116 % of control | dose: 0.25 mg/kg/injection, schedule: Q01DX009 (ip), vehicle: carboxymethylcellulose (CMC) 96 % of control | dose: 0.36 mg/kg/injection, schedule: Q01DX Z (ip), vehicle: water 108 % of control | dose: 0.5 mg/kg/injection, schedule: Q01DX009 (ip), vehicle: carboxymethylcellulose (CMC) 91 % of control | dose: 1.0 mg/kg/injection, schedule: Q01DX009 (ip), vehicle: carboxymethylcellulose (CMC) 104 % of control | dose: 1.0 mg/kg/injection, schedule: Q01DX Z (ip), vehicle: water 114 % of control | dose: 2.0 mg/kg/injection, schedule: Q01DX009 (ip), vehicle: carboxymethylcellulose (CMC) 91 % of control

CCCCCCCCCC(=O)NN1CCOCC1
inactive: [7] 105 % of control | [8] 89 % of control | [9] 89 % of control

Nc1ccc2nc(NCCCO)c3ccccc3c2c1
inactive: [4] 107 % of control | [5] 113 % of control | [6] 102 % of control

FC(F)(F)c1cccc(NC(=S)SCc2ccccc2)c1
inactive: dose: 75.0 mg/kg/injection, schedule: Q04DX003 (ip), vehicle: saline with Tween-80 95 % of control | dose: 150.0 mg/kg/injection, schedule: Q04DX003 (ip), vehicle: saline with Tween-80 98 % of control | dose: 300.0 mg/kg/injection, schedule: Q04DX003 (ip), vehicle: saline with Tween-80 102 % of control

CCOC(=O)COC(CN)C(Cl)(Cl)Cl (configuration not stated)
inactive: [10] 93 % of control | [7] 90 % of control | [8] 90 % of control

O=[N+]([O-])c1cc[n+]([O-])c(Br)c1
inactive: [7] 98 % of control | [11] 108 % of control | [8] 103 % of control | [12] 101 % of control | [9] 97 % of control | [13] 93 % of control

O=C(Nc1ccc([N+](=O)[O-])cc1Cl)Oc1ccc(Cl)cc1Cc1ccccc1
inactive: [11] 88 % of control | [12] 93 % of control | [13] 102 % of control

O=[N+]([O-])c1cccc2cccc([N+](=O)[O-])c12
inactive: [14] 91 % of control | [15] 103 % of control | [3] 86 % of control | [16] 98 % of control | [17] 101 % of control

CC[As](=O)(O)CC(C)C
inactive: [14] 96 % of control

OC1CC2CCC1CC2 (configuration not stated)
inactive: [7] 100 % of control | [11] 89 % of control | [8] 97 % of control | [12] 96 % of control | [9] 102 % of control | [13] 86 % of control

Cc1ccc(NN)c(Br)c1
inactive: [15] 104 % of control | [16] 106 % of control | [17] 101 % of control

ClC1=NC(Cl)C(Cl)=N/C1=N\c1ncn[nH]1 (configuration not stated)
inactive: dose: 6.25 mg/kg/injection, schedule: Q01DX009 (ip), vehicle: saline with Tween-80 103 % of control | dose: 12.5 mg/kg/injection, schedule: Q01DX009 (ip), vehicle: saline with Tween-80 97 % of control | dose: 25.0 mg/kg/injection, schedule: Q01DX009 (ip), vehicle: saline with Tween-80 105 % of control | dose: 31.25 mg/kg/injection, schedule: Q01DX009 (ip), vehicle: saline with Tween-80 87 % of control

O=C(Nc1nccs1)Nc1ccccc1C(F)(F)F
inactive: [7] 100 % of control | [8] 106 % of control | [9] 92 % of control

c1ccc2c(c1)CCc1ccccc1CN(CCNC1=NCCN1)C2
inactive: dose: 6.25 mg/kg/injection, schedule: Q01DX009 (ip), vehicle: Klucel (hydroxypropylcellulose) (HPC) 96 % of control | dose: 12.5 mg/kg/injection, schedule: Q01DX009 (ip), vehicle: Klucel (hydroxypropylcellulose) (HPC) 91 % of control | dose: 25.0 mg/kg/injection, schedule: Q01DX009 (ip), vehicle: Klucel (hydroxypropylcellulose) (HPC) 91 % of control

[O]=[Nb]
inactive: dose: 2.5 mg/kg/injection, schedule: Q01DX009 (ip), vehicle: saline with Tween-80 95 % of control | dose: 5.0 mg/kg/injection, schedule: Q01DX009 (ip), vehicle: saline with Tween-80 96 % of control | dose: 10.0 mg/kg/injection, schedule: Q01DX009 (ip), vehicle: saline with Tween-80 97 % of control

COC(=O)C1CCCN(C)C1c1c[nH]c2ccccc12 (configuration not stated)
inactive: dose: 75.0 mg/kg/injection, schedule: Q01DX001 (ip), vehicle: other 90 % of control | dose: 150.0 mg/kg/injection, schedule: Q01DX001 (ip), vehicle: other 106 % of control

CC(C)(CBr)COC(=O)Nc1ccc2ccccc2c1
inactive: [10] 95 % of control | [7] 95 % of control | [8] 88 % of control

O=S(=O)(c1ccccc1)C1CC(Cl)C1 (configuration not stated)
inactive: [15] 109 % of control | [16] 98 % of control | [17] 97 % of control

C=CCNC(=O)c1ccc[n+](CC(=O)NCCCCCCCCCC)c1
inactive: dose: 12.5 mg/kg/injection, schedule: Q04DX003 (ip), vehicle: saline with Tween-80 95 % of control | dose: 25.0 mg/kg/injection, schedule: Q04DX003 (ip), vehicle: saline with Tween-80 101 % of control | dose: 50.0 mg/kg/injection, schedule: Q04DX003 (ip), vehicle: saline with Tween-80 94 % of control
